Series [1] addresses T1, NK1 receptor (Homo sapiens, UniProt P25103).
T1 construct: Measurement of NK1 Receptor Mediated Intracellular [Ca^2+]; Mobilization in U251 MG Cells Using FLIPR; endogenous in cells; host or cells: U251 MG cells
The series can be described thus: NK1 receptor mediated intracellular [Ca2+] mobilization in U251 MG cells using FLIPR. Particulars: antagonist potency against Substance P (EC80), normalized to 100 nM Aprepitant, read-out: U251MG (FLIPR pIC50) (converted). The format is cell-based. An outline of the steps: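 Fluo-4-loaded U251 MG cells were preincubated with compound (0.5% DMSO final), with any agonist effect read for 5 min, then 10 min more at 37 °C before Substance P at EC80. Peak FLIPR fluorescence change was read, and IC50 came from a four-parameter fit as the midpoint between fitted top and bottom.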

Series [2] is described as follows: Hepatic intrinsic clearance following incubation in human liver microsomes. The format is in vitro ADME. The settings on record: NADPH regenerating system, 0-30 min, 37 °C. As to the method:
Hepatic Extraction Ratio from Hepatic Intrinsic Clearance Following Incubation in Human Liver Microsomes
The general procedure consists of an automated incubation system and LC-MS/MS analysis with human liver microsomes. Human liver microsomes are thawed rapidly in a waterbath at 37° C. and kept on ice until use. The human liver microsomes are diluted with 50 mM potassium phosphate buffer pH 7.4 to a protein concentration of 0.55 mg/mL. Test compounds and positive controls (Verapamil and Dextromethorphan, positive controls for CYP3A4 for CYP2D6 isoforms, respectively) are dissolved in methanol (or other appropriate solvent, if necessary) in order to obtain a 5 mM solution which is further diluted to the concentration of 50 μM. The stock solutions are prepared immediately before the test.
5 μL of 50 μM test compounds and controls are added to 445 μL-of the 0.55 mg/mL microsomes solution and the incubation mixture are pre-warmed at 37° C. for 5 minutes.
The incubation reactions are initiated by adding 50 μL of pre-warmed NADPH regenerating system to the incubation mixtures. 50 μL-aliquots will be taken from the incubation mixtures at: 0, 3, 6, 9, 15 and 30 minutes and the reactions are stopped by adding 100 μL of ACN containing Rolipram, used as generic Internal Standard (1S). Samples are then diluted with 120 μL of Milli-Q water and centrifuged at 3000 rpm for 10 minutes, prior the LC-MS/MS analysis.
The integrated peak areas for test compounds at the selected time points are divided by the respective peak areas of the IS and the percent of parent remaining is calculated by normalizing the peak area ratio of parent to IS at 0 min. Observed rate constant (kobs) for parent degradation is calculated by determining the slope of the line of the graph of the natural log of percentage parent remaining versus time of incubation. From the rate of depletion (min-1) and volume of the incubation (mL), clearance is estimated. This is scaled for the protein in the incubation relative to that in the intact liver, for all species (mL/min/g liver).
Values for the Human in vitro Clint are expressed as mL/min/g liver.
Assuming a liver weight of 25.7 g/kg and a liver blood flow of 20.7 mL/min/kg, the hepatic extraction ratio, Eh, can be derived from the Human in vitro Clint:
E.g. a Human in vitro Clint of 2.4 mL/min/g liver corresponds to a hepatic extraction ratio of 75%.
Some compounds of the present invention were tested according to example 121.

We go through 17 compounds from US9181259B2 (LEO PHARMA A/S, priority 2012, dated 2015).

T1 sequence (P25103 whole entry): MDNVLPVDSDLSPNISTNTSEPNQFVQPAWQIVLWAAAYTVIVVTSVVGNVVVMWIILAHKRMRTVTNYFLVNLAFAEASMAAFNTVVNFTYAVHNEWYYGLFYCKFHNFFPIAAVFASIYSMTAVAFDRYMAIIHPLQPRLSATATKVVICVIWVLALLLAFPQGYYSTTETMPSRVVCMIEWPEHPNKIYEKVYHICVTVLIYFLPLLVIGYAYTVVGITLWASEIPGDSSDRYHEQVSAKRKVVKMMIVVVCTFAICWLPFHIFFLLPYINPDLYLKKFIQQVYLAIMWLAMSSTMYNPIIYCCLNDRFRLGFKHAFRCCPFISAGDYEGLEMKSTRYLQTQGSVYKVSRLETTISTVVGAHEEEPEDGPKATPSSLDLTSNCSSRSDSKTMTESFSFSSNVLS

Take `Cc1ccccc1[C@H]1[C@@H]2CC(CO)(CO)C(=O)N2CCN1C(=O)N(C)[C@H](C)c1cc(C(F)(F)F)cc(C(F)(F)F)c1` [Compound 104, (1S,8aS)-N-((R)-1-(3,5-bis(trifluoromethyl)phenyl)ethyl)-7,7-bis(hydroxymethyl)-N-methyl-6-oxo-1-o-tolylhexahydropyrrolo[1,2-a]pyrazine-2(1H)-carboxamide]: the IC50 in series [1] was 0.1 nM. Further, in series [2], the “Human in vitro Clint (mL/min/g liver)” value is given as 3.1 mL/min/g liver.

Turning to `Cc1ccccc1C1C2CC(CO)C(=O)N2CCN1C(=O)N(C)Cc1cc(C(F)(F)F)cc(C(F)(F)F)c1` (single isomer, unassigned) [Compound 22, N-{[3,5-bis(trifluoromethyl)phenyl]methyl}-7-(hydroxymethyl)-N-methyl-1-(2-methylphenyl)-6-oxo-octahydropyrrolo[1,2-a]piperazine-2-carboxamide], in series [1], the IC50 is 0.0513 nM. Further, the “Human in vitro Clint (mL/min/g liver)” value in series [2] is given as 0.8 mL/min/g liver.

Turning to `Cc1ccccc1C1C2CCCN2CCN1C(=O)N(C)[C@H](C)c1cc(C(F)(F)F)cc(C(F)(F)F)c1` (single isomer, unassigned) [Compound 63], the IC50 in series [1] was 0.324 nM. Further, in series [2], the “Human in vitro Clint (mL/min/g liver)” value is listed as 11 mL/min/g liver.

For the compound `Cc1ccccc1C1C2CC(CN3CCOCC3)C(=O)N2CCN1C(=O)N(C)Cc1cc(C(F)(F)F)cc(C(F)(F)F)c1` (single isomer, unassigned) [Compound 29, N-{[3,5-bis(trifluoromethyl)phenyl]methyl}-N-methyl-1-(2-methylphenyl)-7-(morpholin-4-ylmethyl)-6-oxo-octahydropyrrolo[1,2-a]piperazine-2-carboxamide], the IC50 in series [1] was 0.398 nM. For the same compound, in series [2], the “Human in vitro Clint (mL/min/g liver)” value is recorded as 6.4 mL/min/g liver.

On to `Cc1ccccc1[C@H]1[C@@H]2CC(CCO)(CCO)C(=O)N2CCN1C(=O)N(C)[C@@H](C)c1cc(F)cc(C(F)(F)F)c1` [Compound 92, (1S,8aS)-N-((S)-1-(3-fluoro-5-(trifluoromethyl)phenyl)ethyl)-7,7-bis(2-hydroxyethyl)-N-methyl-6-oxo-1-o-tolylhexahydropyrrolo[1,2-a]pyrazine-2(1H)-carboxamide], for which the IC50 in series [1] is 0.0158 nM. In addition, the “Human in vitro Clint (mL/min/g liver)” value in series [2] is listed as 11 mL/min/g liver.

Consider `Cc1ccccc1C1C2CC(CCO)(CCO)C(=O)N2CCN1C(=O)N(C)Cc1cc(C(F)(F)F)cc(C(F)(F)F)c1` (single isomer, unassigned) [Compound 43, N-{[3,5-bis(trifluoromethyl)phenyl]methyl}-7,7-bis(2-hydroxyethyl)-N-methyl-1-(2-methylphenyl)-6-oxo-octahydropyrrolo[1,2-a]piperazine-2-carboxamide], for which, in series [1], the IC50 was 0.525 nM. Besides, the “Human in vitro Clint (mL/min/g liver)” value in series [2] was 3.7 mL/min/g liver.

Regarding `Cc1ccccc1[C@H]1[C@@H]2CC(CCO)(CCO)C(=O)N2CCN1C(=O)N(C)Cc1cc(Cl)cc(C(F)(F)F)c1` [Compound 79, (1S,8aS)-N-(3-chloro-5-(trifluoromethyl)benzyl)-7,7-bis(2-hydroxyethyl)-N-methyl-6-oxo-1-o-tolylhexahydropyrrolo[1,2-a]pyrazine-2(1H)-carboxamide], the IC50 in series [1] is 0.105 nM. The “Human in vitro Clint (mL/min/g liver)” value in series [2] is reported as 14 mL/min/g liver.

Regarding `Cc1cc([C@@H](CO)N(C)C(=O)N2CCN3C(=O)C(CCO)(CCO)C[C@H]3[C@@H]2c2ccccc2C)cc(C(F)(F)F)c1` [Compound 111, (1S,8aS)-N-((S)-2-hydroxy-1-(3-methyl-5-(trifluoromethyl)phenyl)ethyl)-7,7-bis(2-hydroxyethyl)-N-methyl-6-oxo-1-o-tolylhexahydropyrrolo[1,2-a]pyrazine-2(1H)-carboxamide], the IC50 in series [1] is 0.0617 nM. In series [2], the “Human in vitro Clint (mL/min/g liver)” value is 3.7 mL/min/g liver.

For the compound `Cc1cc([C@@H](C)N(C)C(=O)N2CCN3C(=O)C(CO)C[C@H]3[C@@H]2c2ccccc2C)cc(C(F)(F)F)c1` (stereo partly drawn) [Compound 102, (1S,8aS)-7-(hydroxymethyl)-N-methyl-N-((R)-1-(3-methyl-5-(trifluoromethyl)phenyl)ethyl)-6-oxo-1-o-tolylhexahydropyrrolo[1,2-a]pyrazine-2(1H)-carboxamide], in series [1], the IC50 was 0.214 nM. Besides, the “Human in vitro Clint (mL/min/g liver)” value in series [2] was 5.6 mL/min/g liver.

In the case of `Cc1ccccc1C1C2CC(CO)CN2CCN1C(=O)N(C)Cc1cc(C(F)(F)F)cc(C(F)(F)F)c1` (single isomer, unassigned) [Compound 49, N-{[3,5-bis(trifluoromethyl)phenyl]methyl}-7-(hydroxymethyl)-N-methyl-1-(2-methylphenyl)-octahydropyrrolo[1,2-a]piperazine-2-carboxamide], the IC50 in series [1] is 0.347 nM. Also, the “Human in vitro Clint (mL/min/g liver)” value in series [2] came to 1.9 mL/min/g liver.

Turning to `Cc1ccccc1C1C2CCC(=O)N2CCN1C(=O)N(C)Cc1cc(F)cc(C(F)(F)F)c1` (single isomer, unassigned) [Compound 3, N-{[3-fluoro-5-(trifluoromethyl)phenyl]methyl}-N-methyl-1-(2-methylphenyl)-6-oxo-octahydropyrrolo[1,2-a]piperazine-2-carboxamide], the IC50 in series [1] was 1.38 nM. For the same compound, the “Human in vitro Clint (mL/min/g liver)” value in series [2] came to 9.5 mL/min/g liver.

`Cc1cc([C@@H](C)N(C)C(=O)N2CCN3C(=O)C(CCO)(CCO)C[C@H]3[C@@H]2c2ccccc2C)cc(C(F)(F)F)c1` [Compound 85, (1S,8aS)-7,7-bis(2-hydroxyethyl)-N-methyl-N-((R)-1-(3-methyl-5-(trifluoromethyl)phenyl)ethyl)-6-oxo-1-o-tolylhexahydropyrrolo[1,2-a]pyrazine-2(1H)-carboxamide]: the IC50 in series [1] is 0.0794 nM. Also, the “Human in vitro Clint (mL/min/g liver)” value in series [2] was 17 mL/min/g liver.

`Cc1ccccc1[C@H]1[C@@H]2CC(CCO)(CCO)C(=O)N2CCN1C(=O)N(C)[C@H](CO)c1cc(F)cc(C(F)(F)F)c1` [Compound 94, (1S,8aS)-N-((S)-1-(3-fluoro-5-(trifluoromethyl)phenyl)-2-hydroxyethyl)-7,7-bis(2-hydroxyethyl)-N-methyl-6-oxo-1-o-tolylhexahydropyrrolo[1,2-a]pyrazine-2(1H)-carboxamide]: the IC50 in series [1] is 0.0501 nM. The “Human in vitro Clint (mL/min/g liver)” value in series [2] was 3.4 mL/min/g liver.

With `Cc1ccccc1C1C2CC(CN3CCOCC3)C(=O)N2CCN1C(=O)N(C)Cc1cc(C(F)(F)F)cc(C(F)(F)F)c1` (single isomer, unassigned) [Compound 41], the IC50 in series [1] was 0.224 nM. Besides, the “Human in vitro Clint (mL/min/g liver)” value in series [2] was 2.9 mL/min/g liver.

Take `Cc1ccccc1[C@H]1[C@@H]2CC(CCO)(CCO)C(=O)N2CCN1C(=O)N(C)[C@H](C)c1cc(Cl)cc(C(F)(F)F)c1` [Compound 89, (1S,8aS)-N-((R)-1-(3-chloro-5-(trifluoromethyl)phenyl)ethyl)-7,7-bis(2-hydroxyethyl)-N-methyl-6-oxo-1-o-tolylhexahydropyrrolo[1,2-a]pyrazine-2(1H)-carboxamide]: the IC50 in series [1] was 0.126 nM. For the same compound, in series [2], the “Human in vitro Clint (mL/min/g liver)” value came out at 15 mL/min/g liver.

Turning to `Cc1ccccc1[C@H]1[C@@H]2CC(CCO)(CCO)C(=O)N2CCN1C(=O)N(C)[C@H](C)c1cc(C(F)F)cc(C(F)(F)F)c1` [Compound 97, (1S,8aS)-N-((R)-1-(3-(difluoromethyl)-5-(trifluoromethyl)phenyl)ethyl)-7,7-bis(2-hydroxyethyl)-N-methyl-6-oxo-1-o-tolylhexahydropyrrolo[1,2-a]pyrazine-2(1H)-carboxamide], in series [1], the IC50 was 0.0501 nM. Moreover, the “Human in vitro Clint (mL/min/g liver)” value in series [2] worked out at 14 mL/min/g liver.

Turning to `Cc1ccccc1C1C2CC(CN3CCCC3)C(=O)N2CCN1C(=O)N(C)Cc1cc(C(F)(F)F)cc(C(F)(F)F)c1` (single isomer, unassigned) [Compound 30, N-{[3,5-bis(trifluoromethyl)phenyl]methyl}-N-methyl-1-(2-methylphenyl)-6-oxo-7-(pyrrolidin-1-ylmethyl)-octahydropyrrolo[1,2-a]piperazine-2-carboxamide], the IC50 in series [1] is 0.38 nM. The “Human in vitro Clint (mL/min/g liver)” value in series [2] was 2.4 mL/min/g liver.
